Laboratory results from patent US12234248B2, “Co-crystal compounds comprising lithium ions and isonicotinamide” (UNIVERSITY OF LIMERICK, priority 2017, dated 2025).
“And” between values parts separate entries of the source, which are not always exact repeats. Equal values may be shown once.

How the values were obtained:
[1] = Stability of crystalline material under warm humid conditions (40° C., 75% relative humidity), PXRD before and after; type: physicochemical; details: stored at 40° C., 75% relative humidity; stable = retained crystal form for at least two weeks by PXRD
Method: The stability of these compounds under warm humid conditions was assessed as follows:
The crystalline material was stored at 40° C. in an atmosphere of 75% relative humidity.
Compounds were classed as stable if they retained their crystal form for at least two weeks as verified by examination of PXRD patterns collected before and after exposure to humidity.
It can be seen that the pattern obtained after 2 months at 75% relative humidity and 40° C. (upper trace) in this case is different.

[2] = Bioavailability in vivo in rats: lithium in plasma and brain by ICP-OES after oral administration; details: for BRAIN CONC., Time(h) 2.00 / PLASMA CONC, Time(h) 2.00: 2 h; for BRAIN CONC., Time(h) 2.00 / BRAIN CONC., Time(h) 24.00 / BRAIN CONC., Time(h) 48.00 / BRAIN CONC., Time(h) 72.00: lithium in brain; for BRAIN CONC., Time(h) 2.00 / PLASMA CONC, Time(h) 2.00 / BRAIN CONC., Time(h) 24.00 / PLASMA CONC, Time(h) 24.00 / BRAIN CONC., Time(h) 48.00 / PLASMA CONC, Time(h) 48.00 / BRAIN CONC., Time(h) 72.00 / PLASMA CONC, Time(h) 72.00: individual rats (three per time); for PLASMA CONC, Time(h) 2.00 / PLASMA CONC, Time(h) 24.00 / PLASMA CONC, Time(h) 48.00 / PLASMA CONC, Time(h) 72.00: lithium in plasma; for BRAIN CONC., Time(h) 24.00 / PLASMA CONC, Time(h) 24.00: 24 h; for BRAIN CONC., Time(h) 48.00 / PLASMA CONC, Time(h) 48.00: 48 h; for BRAIN CONC., Time(h) 72.00 / PLASMA CONC, Time(h) 72.00: 72 h
Method: Male Sprague-Dawley rats, weighing 240-290 g, were treated through gastric intubation with formulations of lithium and compared with lithium carbonate as a reference. For each formulation a group of 12 rats was treated. 4 mEq/kg of lithium were orally administered, after suspension in 2 mL of corn seeds oil (“Olio Cuore”).
Four intervals' post-administration time (2, 24, 48 and 72 hours) were considered and three rats for each of them, employing the protocol used by Zaworotko and coworkers (Smith et al., Mol. Pharmaceutics 2013, 10, 4728-4738). At each time interval blood samples were collected through intra-cardiac […], these were treated with 50 μL of sodium heparin and centrifuged for 10 min at 1600 rpm. Plasma samples of approximately […] each were thus obtained. The brain was explanted in toto with perfusion with phosphate buffered saline (PBS) in order to preserve it in a viable state. The plasma and brain samples were immediately frozen at a temperature of −80° C., after measuring the weight of the brains.
In order to determine the concentration of the lithium by means of the ICP-OES (Inductively Coupled Plasma Optical Emission Spectometry) analysis, plasma and brain samples were purified and mineralized, respectively to obtain solutions suitable for analysis.
A 0.5 mL aliquot was taken from each sample, to which were added equal amounts of MilliQ water and concentrated nitric acid, in order to bring the lithium ion in solution in the form of LiNO3 and to obtain the precipitation of the proteins. At this point, each sample was sonicated for 10 min in an ultrasonic bath and diluted to a volume of 5.0 mL.
All samples were subjected to centrifugation for a period of 40 min, at a rotational speed of 6000 rpm, to obtain complete plasma proteins/solution separation. At the end supernatant liquid containing lithium was diluted to a final volume of 15 mL by adding MilliQ water. The obtained solutions were stored at a temperature of 4° C. until analysis.
The purpose of this phase was to obtain liquid samples, suitable to ICP-OES analysis, containing lithium in solution, starting from the solid organic tissue of the brain. The mineralization process allows the complete degradation of organic substances until the total transformation into simple inorganic substances.
The first operation performed was that the drying of the fabric, obtained through the use of a digester open PerkinElmer SPB 100-12: each sample of brain has been inserted in special containers Digitube™ 100 mL and maintained at a temperature of 80° C. for 120 min.
The second step involved the mineralization true and proper brain: each sample were added to 10 mL of concentrated nitric acid and 1.0 mL of hydrogen peroxide, then the system was brought to a temperature of 120° C. for 120 min. until the complete mineralization. With this procedure you get the desired biological degradation of organic compounds and the consequent passage of lithium in solution. The solutions thus obtained were collected, brought to a final volume of 20 mL with MilliQ water and preserved at a temperature of 4° C. until time of analysis.
In order to obtain the determination of lithium ion concentrations in the samples previously prepared, optical emission spectrometry inductively coupled plasma ICP-OES was used (PerkinElmer Optima 8000 spectrometer).
The analysis was conducted at the fixed wavelength of lithium (λ=670.784 nm) and the intensity of the radiation emitted by each sample was measured and compared standard solutions.
Plasma and brain concentration data were processed using a non-compartmental approach using WinNonlin® software (Pharsight Corporation, USA) and Microsoft Excel XP (Microsoft Corporation, […]).

[3] = rat brain, 4 mEq/kg lithium oral, non-compartmental
[4] = rat brain, 4 mEq/kg lithium oral, terminal phase
[5] = rat brain, 4 mEq/kg lithium oral, time 0 to last quantifiable point
[6] = rat brain, relative to lithium carbonate
[7] = rat plasma, 4 mEq/kg lithium oral, non-compartmental
[8] = rat plasma, 4 mEq/kg lithium oral, terminal phase
[9] = rat plasma, relative to lithium carbonate

Compound	Stable? [1]	Cmax (brain) [2, 3]	Tmax (brain) [2, 3]	t½_Lambda_z (brain) [2, 4]	AUClast (brain) [2, 5]	Relative Brain BA (UL crystal forms, oral vs Li2CO3, oral) [2, 6]	Cmax (plasma) [2, 7]	Tmax (plasma) [2, 7]	t½_Lambda_z (plasma) [2, 8]	Relative Plasma BA (UL crystal forms, oral vs Li2CO3 oral) [2, 9]	BRAIN CONC., Time(h) 2.00 ([2]; rat, 4 mEq/kg lithium oral)	PLASMA CONC, Time(h) 2.00 ([2]; rat, 4 mEq/kg lithium oral)	BRAIN CONC., Time(h) 24.00 ([2]; rat, 4 mEq/kg lithium oral)	PLASMA CONC, Time(h) 24.00 ([2]; rat, 4 mEq/kg lithium oral)	BRAIN CONC., Time(h) 48.00 ([2]; rat, 4 mEq/kg lithium oral)	PLASMA CONC, Time(h) 48.00 ([2]; rat, 4 mEq/kg lithium oral)	BRAIN CONC., Time(h) 72.00 ([2]; rat, 4 mEq/kg lithium oral)	PLASMA CONC, Time(h) 72.00 ([2]; rat, 4 mEq/kg lithium oral)	also measured
COc1ccc(C(=O)[O-])cc1.O=C(O)[C@@H]1CCCN1.[Li+] [Compound 5, [Li(4-methoxybenzoate)(L-proline)]n]	Yes	4.9833 µg/g	48 h	13.4751 h	229.3867 mg·h/g	98.70%	6080 ng/mL	24 h	16.5057 h	90.41%	0.23 µg/g and 0.48 µg/g and 0.46 µg/g	2820 ng/mL and 4020 ng/mL and 2650 ng/mL	4.44 µg/g and 4.46 µg/g and 2.54 µg/g	7150 ng/mL and 6800 ng/mL and 4290 ng/mL	4.42 µg/g and 4.76 µg/g and 5.77 µg/g	1450 ng/mL and 1910 ng/mL and 3650 ng/mL	1.08 µg/g and 0.43 µg/g and 2.84 µg/g	630 ng/mL and 480 ng/mL and 1320 ng/mL	concentration of lithium in the brain compared with lithium carbonate ([2]; rat brain, after 48 hours, FIG. 12): higher
COc1cccc(C(=O)[O-])c1.O=C(O)[C@@H]1CCCN1.[Li+] [Compound 6, [Li(3-methoxybenzoate)(L-proline)]n]	Yes	4.3733 µg/g	24 h	15.3888 h	172.7467 mg·h/g	74.33%	6383.3 ng/mL	24 h	10.4363 h	74.07%	0.64 µg/g and 0.44 µg/g and 0.73 µg/g	3030 ng/mL and 1430 ng/mL and 3380 ng/mL	4.54 µg/g and 4.21 µg/g and 4.37 µg/g	5950 ng/mL and 4760 ng/mL and 8440 ng/mL	2.84 µg/g and 2.06 µg/g and 2.46 µg/g	670 ng/mL and 740 ng/mL and 870 ng/mL	0.59 µg/g and 0.49 µg/g and 0.43 µg/g	230 ng/mL and 310 ng/mL and 250 ng/mL	
NC(=O)c1ccncc1.NC(=O)c1ccncc1.O=C([O-])CCC(=O)[O-].[Li+].[Li+] [Compound 7, [Li2(succinate) (isonicotinamide)2]n]	Yes																		AUC (Cerebral)/AUC (Plasma) ([2]; rat, in vivo): 1.077; AUC(0-t) ([2]; rat, in vivo, po): 197 µg·h/mL; AUClast (brain) ([2]; rat, in vivo, po): 211.7400 mg·h/g; Cmax (brain) ([2]; rat, in vivo, po): 5.1533 µg/g; Cmax (plasma) ([2]; rat, in vivo, po): 4140 ng/mL; Relative Brain BA (UL crystal forms, oral vs Li2CO3, oral) ([2]; rat, in vivo, po): 91.11%; Relative Plasma BA (UL crystal forms, oral vs Li2CO3 oral) ([2]; rat, in vivo, po): 72.96%; Tmax (brain) ([2]; rat, in vivo, po): 48 h; Tmax (plasma) ([2]; rat, in vivo, po): 24 h; t½_Lambda_z (brain) ([2]; rat, in vivo, po): 7.7957 h; t½_Lambda_z (plasma) ([2]; rat, in vivo, po): 15.0424 h
